In PubChem BioAssay (NCI):
Values joined by “and” are separate entries in the source; they are usually repeats but may differ in a detail not shown here. Equal entries are not always repeated.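 Protocol summary: plate cells (96-well), add compound at 5 concentrations, incubate 48 h, interpolate endpoints linearly. The concentration for 50% growth inhibition is given as GI50. TGI denotes the concentration required for complete inhibition of growth.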

Experiments:
Assay in all cases: NCI anticancer screen, dose series, 48 h
[1] = test system: M14 melanoma
[2] = test system: MALME-3M melanoma
[3] = test system: NCI-H226 lung
[4] = test system: NCI-H522 lung
[5] = test system: OVCAR-3 ovarian
[6] = test system: SF-268 CNS
[7] = test system: SK-MEL-2 melanoma
[8] = test system: SNB-19 CNS
[9] = test system: TK-10 renal
[10] = test system: UO-31 renal

SMILES | GI50 [1] | TGI [1] [µM] | GI50 [2] | TGI [2] | GI50 [3] | TGI [3] [µM] | GI50 [4] | TGI [4] | GI50 [5] | TGI [5] [µM] | GI50 [6] | TGI [6] [µM] | GI50 [7] | TGI [7] | GI50 [8] | TGI [8] [µM] | GI50 [9] | TGI [9] | GI50 [10] | TGI [10]
CC(C)[C@@H]1NC(=O)[C@]2(C)CSC(=N2)c2csc(n2)CNC(=O)C[C@@H](/C=C/CCS)OC1=O | 0.0835 µM | 52.7 | 0.0295 µM | > 100 µM | 0.403 µM | 7.69 | 0.165 µM | 3.75 µM | 0.359 µM | 4.12 | 0.181 µM | > 100 | 0.049 µM | 1.49 µM | 0.168 µM | > 44.3 | 0.0864 µM | 1.35 µM | 0.605 µM | 6.5 µM
Nc1nn(C(=O)Nc2ccc(Cc3ccccc3)cc2)c2ccc(Cl)cc12 | 0.0666 µM | 11.7 | 12 µM | > 74 µM | 13.5 µM | > 81.7 | 7.96 µM | > 100 µM | 7.14 µM | 21.6 | 13.2 µM | 52.3 | 16.5 µM | > 100 µM | 18.1 µM | 51.7 | 17.7 µM | 50.3 µM | 5.9 µM | 82.7 µM
Cn1c(=O)c(Sc2ccccc2F)cc2cnc(NC3CCOCC3)nc21 | > 25 µM | > 25 | > 25 µM | > 25 µM | > 25 µM | > 25 | > 25 µM | > 25 µM | > 25 µM | > 25 | > 25 µM | > 25 | > 25 µM | > 25 µM | > 25 µM | > 25 | > 25 µM | > 25 µM | > 25 µM | > 25 µM
CCCCC(SC(=S)N(CC)CC)C(=O)Nc1nc(CC(=O)OCC)cs1 (centres undefined) | 33.7 µM | > 100 | 24.8 µM | > 100 µM | 58 µM | > 100 | 13.3 µM | > 100 µM | 13.7 µM | > 100 | 54.3 µM | > 100 | 29.2 µM | 86 µM | 56.9 µM | > 100 | 82.9 µM | > 100 µM | 47.6 µM | > 100 µM
NC(=O)c1cccc(N)c1 | > 100 µM | > 100 | > 100 µM | > 100 µM | > 100 µM | > 100 | > 100 µM | > 100 µM | > 100 µM | > 100 | > 100 µM | > 100 | > 100 µM | > 100 µM | > 100 µM | > 100 | > 100 µM | > 100 µM | > 100 µM | > 100 µM
COc1cccc(C2=NN(C(C)=O)C(c3cc(OC)c(OC)c(OC)c3)C2)c1 (centres undefined) | 1.47 µM | > 100 | 2.47 µM | > 100 µM | > 100 µM | > 100 | 3.97 µM | > 66.3 µM | 1.09 µM | 3.8 | 10.8 µM | > 100 | 23.8 µM | > 100 µM | 3.18 µM | > 100 | 25.8 µM | > 100 µM | 7.65 µM | > 100 µM
Cc1nc(NC(=O)COc2cccc(/C=C3\COc4ccccc4C3=O)c2)sc1C | 1.83 µM | 3.75 | 1.79 µM | 4.11 µM | 3.32 µM | 9.66 | 1.89 µM | 4.41 µM | 1.83 µM | 3.27 | 1.85 µM | 3.5 | 1.62 µM | 3.17 µM | 3.38 µM | 13.6 | 2.31 µM | 4.08 µM | 0.704 µM | 1.63 µM
O=C(O[C@H]1CN[C@H](C#Cc2cc3ncnc(Nc4ccc(Cc5ccccc5)cc4)c3s2)C1)N1CCOCC1 | 6.08 µM | 18.9 | 4.71 µM | > 20.3 µM | 5.01 µM | 15.7 | 0.482 µM | 4.2 µM | 3.85 µM | 11 | 3.8 µM | 10.6 | 5.41 µM | 14.4 µM | 7.73 µM | > 25 | 0.548 µM | 4.97 µM | 3.36 µM | > 25 µM
COC(=O)c1c2c(c[n+]([O-])c1C)C(=O)C(NCc1ccccc1)=CC2=O | 0.297 µM | 1.12 | 0.127 µM | 0.294 µM | 1.23 µM | 2.84 | 0.31 µM | 1.57 µM | 0.256 µM | 0.796 | 0.998 µM | 3.94 | 1.19 µM | 3.35 µM | 1.46 µM | 2.77 | 3.17 µM | 7.07 µM | 1.25 µM | 2.58 µM
Oc1ccc(Cl)cc1Cc1cc(Cl)cc(Cc2cc(Cl)ccc2O)c1O | – | 6.71 | – | 5.56 µM | – | 7.07 | – | 3.32 µM | – | 11 | – | 12 | – | 7.68 µM | – | 14.6 | – | 9.17 µM | – | 10.3 µM
CCCCCCCCCCCCCCCCCC(=O)[O][Sn]([CH2]CCC)([CH2]CCC)[CH2]CCC | 0.169 µM | 0.32 | 0.141 µM | 0.327 µM | 0.162 µM | 0.319 | 0.14 µM | 0.318 µM | 0.126 µM | 0.254 | 0.141 µM | 0.337 | 0.171 µM | 0.369 µM | 0.167 µM | 0.338 | 0.164 µM | 0.311 µM | 0.161 µM | 0.34 µM
CCNC(=O)Nc1ccc(-c2nc3c(c(N4CCOC[C@@H]4C)n2)CCN(C2COC2)C3)cc1 | 0.418 µM and 0.323 µM | > 100 | 0.0743 µM and 0.0825 µM | 1.6 µM and 1.2 µM | 0.247 µM and 0.119 µM | – | 0.181 µM and 0.159 µM | > 24.2 µM and 6.18 µM | 0.355 µM and 0.229 µM | > 69.5 | 0.591 µM and 0.29 µM | > 100 | 0.295 µM and 0.392 µM | 3 µM and 3.43 µM | 0.303 µM and 0.45 µM | > 21.6 | 0.195 µM and 0.128 µM | 3.86 µM and 3.13 µM | 0.101 µM and 0.0801 µM | 2.39 µM and 1.45 µM
Clc1ccc(-c2nc(-c3c[nH]c4ncccc34)cs2)cc1 | > 100 µM | > 100 | > 100 µM | > 100 µM | > 100 µM | > 100 | > 100 µM | > 100 µM | > 100 µM | > 100 | > 100 µM | > 100 | > 100 µM | > 100 µM | > 100 µM | > 100 | > 100 µM | > 100 µM | > 100 µM | > 100 µM
C[C@H]1O[C@@H](O[C@H]2[C@@H](O)C[C@H](O[C@H]3[C@@H](O)C[C@H](O[C@H]4CC[C@]5(C)C6C[C@@H](O)[C@]7(C)[C@@H](C8=CC(=O)OC8)CC[C@]7(O)C6CC[C@@H]5C4)O[C@@H]3C)O[C@@H]2C)C[C@H](O)[C@@H]1O (some centres undefined) | 0.107 µM | 0.241 | 0.115 µM | 0.262 µM | 0.102 µM | 0.191 | 0.015 µM | 0.0695 µM | 0.0241 µM | 0.0792 | 0.0253 µM | 0.083 | 0.121 µM | 0.328 µM | 0.175 µM | 0.678 | 0.0266 µM | 0.213 µM | 0.0836 µM | 0.166 µM
NC(=O)Cc1ccccc1Oc1nccc(-c2c(-c3ccc(F)cc3)ncn2C2CCNCC2)n1 | > 25 µM | > 25 | > 25 µM | > 25 µM | > 25 µM | > 25 | > 25 µM | > 25 µM | > 25 µM | > 25 | > 25 µM | > 25 | > 25 µM | > 25 µM | > 25 µM | > 25 | > 25 µM | > 25 µM | > 25 µM | > 25 µM
CCN(CC)CC(O)CNc1ccc(NCC(O)CCl)c2c1C(=O)c1ccccc1C2=O (centres undefined) | – | 9.38 | – | 28.3 µM | – | 25 | – | 13.5 µM | – | 19.3 | – | 19.9 | – | 26.2 µM | – | 25.9 | – | 25.5 µM | – | 17.9 µM
[Ce+3].[Cl-].[O-]/N=C(\c1ccccc1)c1ccccn1.[O-]/N=C(\c1ccccc1)c1ccccn1.[O-]/N=C(\c1ccccc1)c1ccccn1 | 35.7 µM | > 100 | 69.8 µM | > 100 µM | 21.5 µM | 72 | 21.9 µM | 73.6 µM | 21.4 µM | 90.3 | 44.4 µM | > 100 | 30.9 µM | 76.6 µM | 42.6 µM | > 100 | 51.4 µM | > 100 µM | 28.1 µM | 82.9 µM
O=C1OCC2=C1C(c1ccccc1)c1cc3c(cc1N2CCO)CCC3 (centres undefined) | 0.0722 µM | 0.351 | 0.0609 µM | > 25 µM | 1.02 µM | > 25 | 0.0284 µM | 0.119 µM | 0.0467 µM | 0.0975 | 0.0833 µM | 1.51 | 0.0901 µM | > 8.97 µM | 0.119 µM | > 12.9 | 1.52 µM | > 25 µM | 0.117 µM | > 20.1 µM
O=Cc1ncc(-c2ccc(C(F)(F)F)cc2)c(NC2CCCCCC2)n1 | > 10 µM | > 10 | > 10 µM | > 10 µM | > 10 µM | > 10 | > 10 µM | > 10 µM | > 10 µM | > 10 | > 10 µM | > 10 | > 10 µM | > 10 µM | > 10 µM | > 10 | > 10 µM | > 10 µM | > 10 µM | > 10 µM
COC(=O)C1C2CC3C(OC(=O)C31)C2I (centres undefined) | – | > 100 | – | > 100 µM | – | > 100 | – | > 100 µM | – | > 100 | – | > 100 | – | > 100 µM | – | > 100 | – | > 10 µM | – | > 100 µM
CCOc1ccc(/C=N/Nc2cc(C)nc3ccc(Cl)cc23)cc1 | 1.53 µM | 2.91 | 2.02 µM | 3.6 µM | 1.85 µM | 3.62 | 1.73 µM | 3.29 µM | 1.93 µM | 3.5 | 2.05 µM | 3.9 | 1.9 µM | 3.43 µM | 2.37 µM | 5.07 | 1.91 µM | 3.37 µM | 1.63 µM | 2.98 µM
CC(C)Cc1ccc(C(C)/C=C2\CCC(CN3CCOCC3)C2=O)cc1 (centres undefined) | – | 15.9 | – | 32 µM | – | 35.5 | – | 15.4 µM | – | 9.95 | – | 15.9 | – | 31.3 µM | – | 21.4 | – | 14.9 µM | – | 21.8 µM
CCC[CH2][Sn]([CH2]CCC)([O]C(=O)c1cc(OC)c(OC)c(OC)c1)[O]C(=O)c1cc(OC)c(OC)c(OC)c1 | 1.42 µM | 2.83 | 0.946 µM | 2.17 µM | 1.21 µM | 2.59 | 0.191 µM | 0.348 µM | 1.26 µM | 2.59 | 1.21 µM | 2.48 | 1.1 µM | 2.31 µM | 0.464 µM | 1.54 | 1.58 µM | 3.02 µM | 1.33 µM | 2.61 µM
O=C(c1ccc(F)c(F)c1Nc1ccc(I)cc1F)N1CC(O)([C@H]2CCCCN2)C1 | 0.087 µM | 2.52 | 0.019 µM | 0.0976 µM | 4.8 µM | 22.8 | 8.01 µM | 22.9 µM | 12.1 µM | 25.2 | 9.83 µM | 23.4 | 0.135 µM | 0.702 µM | 8.08 µM | 22.8 | 1.4 µM | 15.3 µM | 1.42 µM | 13.9 µM
C=C1C(=O)O[C@H]2[C@H]1CC/C(COC(=O)NCc1c[nH]c3ccc(OC)cc13)=C\CC[C@@]1(C)O[C@@H]21 | 1.36 µM | 3.4 | 2.14 µM | 4.24 µM | 14.9 µM | 35.5 | 0.89 µM | 2.38 µM | 0.695 µM | 2.1 | 2.55 µM | 7.65 | 6.27 µM | 21.2 µM | 4.76 µM | 18.4 | 1.95 µM | 3.84 µM | 1.74 µM | 3.12 µM
